Measured values reported in US9604983B2, “Herbicidal 3-(2-benzyloxyphenyl)-2,4-dihydroxy-1,8-naphthyridine derivatives” (SYNGENTA LIMITED, priority 2013, dated 2017).

How the values were obtained:
Assay in all cases: Post-emergence efficacy, glasshouse pot test
Type in all cases: in vivo
Conditions in all cases: post-emergence application at 1000 g/ha; evaluated after 13 days; five point scale
Setaria faberi (SETFA) = system: Setaria faberi (SETFA)
Protocol: (§1) B1 Post-emergence Efficacy Seeds of a variety of test species are sown in standard soil in pots:—Solanum nigrum (SOLNI), Amaranthus retoflexus (AMARE), Setaria faberi (SETFA), Alopecurus myosuroides (ALOMY), Echinochloa crus-galli (ECHCG), Ipomoea hederacea (IPOHE). After 8 days cultivation (post-emergence) under controlled conditions in a glasshouse (at 24/16° C., day/night; 14 hours light; 65% humidity), the plants are sprayed with an aqueous spray solution derived from the formulation of the technical active ingredient in acetone/water (50:50) solution containing 0.5% Tween 20 (polyoxyethelyene sorbitan monolaurate, CAS RN 9005-64-5). Compounds are applied at 1000 g/ha. The test plants are then grown in a glasshouse under controlled conditions in a glasshouse (at 24/16° C., day/night; 14 hours light; 65% humidity) and watered twice daily. After 13 days, the test is evaluated for the percentage damage caused to the plant. The biological activities are shown below in Table 13, on a five point scale (5=80-100%; 4=60-79%; 3=40-59%; 2=20-39%; 1=0-19%).

[1] = system: Ipomoea hederacea (IPOHE)
Protocol: as §1

[2] = system: Amaranthus retoflexus (AMARE)
Protocol: as §1

Solanum nigrum (SOLNI) = system: Solanum nigrum (SOLNI)
Protocol: as §1

[3] = system: Alopecurus myosuroides (ALOMY)
Protocol: as §1

[4] = system: Echinochloa crus-galli (ECHCG)
Protocol: as §1

Structure (SMILES)	percentage damage caused to the plant, SETFA (Setaria faberi (SETFA))	percentage damage caused to the plant, IPOHE [1]	percentage damage caused to the plant, AMARE [2]	percentage damage caused to the plant, SOLNI (Solanum nigrum (SOLNI))	percentage damage caused to the plant, ALOMY [3]	percentage damage caused to the plant, ECHCG [4]
C#CCn1c(=O)c(-c2c(Cl)ccc(Cl)c2OCc2ccccc2)c(OC(=O)C(C)C)c2cccnc21 [Compound 1.001, [3-(2-Benzyloxy-3,6-dichloro-phenyl)-2-oxo-1-prop-2-ynyl-1,8-naph-thyridin-4-yl]2-methylpropanoate]	4 (4=60-79%)	5 (5=80-100%)	5 (5=80-100%)	5 (5=80-100%)	2 (2=20-39%)	4 (4=60-79%)
O=c1c(-c2c(Cl)ccc(Cl)c2OCc2ccc(Cl)c(Cl)c2)c(O)c2cccnc2n1CC(F)F [Compound 4.005]	1 (1=0-19%)	5 (5=80-100%)	5 (5=80-100%)	5 (5=80-100%)	1 (1=0-19%)	1 (1=0-19%)
COc1ccnc2c1c(OC(=O)C(C)C)c(-c1c(Cl)ccc(Cl)c1OCc1ccccc1)c(=O)n2CC(F)F [Compound 3.007]	1 (1=0-19%)	2 (2=20-39%)	4 (4=60-79%)	2 (2=20-39%)	1 (1=0-19%)	1 (1=0-19%)
Cc1ccc(COc2c(Cl)ccc(Cl)c2-c2c(O)c3cccnc3n(CC(F)F)c2=O)cc1 [Compound 4.004]	1 (1=0-19%)	5 (5=80-100%)	5 (5=80-100%)	5 (5=80-100%)	2 (2=20-39%)	2 (2=20-39%)
C#CCn1c(=O)c(-c2cccc(Cl)c2OCc2ccccc2)c(O)c2cccnc21 [Compound 10.001]	1 (1=0-19%)	5 (5=80-100%)	4 (4=60-79%)	5 (5=80-100%)	1 (1=0-19%)	1 (1=0-19%)
C#CCn1c(=O)c(-c2c(Cl)ccc(Cl)c2OCc2ccc(OC)cc2)c(O)c2cccnc21 [Compound 2.002]	5 (5=80-100%)	5 (5=80-100%)	4 (4=60-79%)	5 (5=80-100%)	5 (5=80-100%)	5 (5=80-100%)
C#CCn1c(=O)c(-c2c(F)ccc(Cl)c2OCc2ccccc2)c(O)c2c(OC)ccnc21 [Compound 6.002]	5 (5=80-100%)	5 (5=80-100%)	5 (5=80-100%)	5 (5=80-100%)	5 (5=80-100%)	5 (5=80-100%)
CC(C)C(=O)Oc1c(-c2c(F)ccc(Cl)c2OCc2ccccc2)c(=O)n(CC(F)F)c2ncccc12 [Compound 7.001]	1 (1=0-19%)	5 (5=80-100%)	5 (5=80-100%)	5 (5=80-100%)	1 (1=0-19%)	1 (1=0-19%)
CC(C)C(=O)Oc1c(-c2cccc(Cl)c2OCc2ccccc2)c(=O)n(CC(F)F)c2ncccc12 [Compound 11.001]	1 (1=0-19%)	5 (5=80-100%)	5 (5=80-100%)	5 (5=80-100%)	1 (1=0-19%)	1 (1=0-19%)
O=c1c(-c2c(Cl)ccc(Cl)c2OCc2ccc(Cl)cc2)c(O)c2cccnc2n1CC(F)F [Compound 4.003]	1 (1=0-19%)	5 (5=80-100%)	5 (5=80-100%)	5 (5=80-100%)	1 (1=0-19%)	2 (2=20-39%)
C#CCn1c(=O)c(-c2cccc(Cl)c2OCc2ccccc2)c(O)c2nccnc21 [Compound 10.003]	5 (5=80-100%)	5 (5=80-100%)	5 (5=80-100%)	5 (5=80-100%)	4 (4=60-79%)	5 (5=80-100%)
C#CCn1c(=O)c(-c2c(Cl)ccc(Cl)c2OCc2ccc(C)cc2)c(O)c2cccnc21 [Compound 2.004]	4 (4=60-79%)	5 (5=80-100%)	5 (5=80-100%)	5 (5=80-100%)	4 (4=60-79%)	4 (4=60-79%)
O=c1c(-c2cccc(Cl)c2OCc2ccccc2)c(O)c2cccnc2n1CC(F)F [Compound 12.001]	1 (1=0-19%)	5 (5=80-100%)	5 (5=80-100%)	5 (5=80-100%)	1 (1=0-19%)	1 (1=0-19%)
O=c1c(-c2c(Cl)ccc(Cl)c2OCc2ccccc2)c(O)c2cccnc2n1CC(F)F [Compound 4.001]	1 (1=0-19%)	5 (5=80-100%)	5 (5=80-100%)	5 (5=80-100%)	4 (4=60-79%)	4 (4=60-79%)
CC(C)C(=O)Oc1c(-c2c(Cl)ccc(Cl)c2OCc2ccccc2)c(=O)n(CC(F)F)c2ncccc12 [Compound 3.001]	1 (1=0-19%)	5 (5=80-100%)	5 (5=80-100%)	5 (5=80-100%)	2 (2=20-39%)	2 (2=20-39%)
O=c1c(-c2c(F)ccc(Cl)c2OCc2ccccc2)c(O)c2nccnc2n1CC(F)F [Compound 8.003]	5 (5=80-100%)	5 (5=80-100%)	5 (5=80-100%)	5 (5=80-100%)	3 (3=40-59%)	4 (4=60-79%)
C#CCn1c(=O)c(-c2cccc(Cl)c2OCc2ccccc2)c(OC(=O)C(C)C)c2cccnc21 [Compound 9.001]	1 (1=0-19%)	5 (5=80-100%)	3 (3=40-59%)	5 (5=80-100%)	1 (1=0-19%)	2 (2=20-39%)
C#CCn1c(=O)c(-c2c(Cl)ccc(Cl)c2OCc2ccc(C(F)(F)F)cc2)c(O)c2cccnc21 [Compound 2.006]	5 (5=80-100%)	5 (5=80-100%)	5 (5=80-100%)	5 (5=80-100%)	4 (4=60-79%)	5 (5=80-100%)
Cc1ccc(COc2c(Cl)ccc(Cl)c2-c2c(OC(=O)C(C)C)c3cccnc3n(CC(F)F)c2=O)cc1 [Compound 3.004]	1 (1=0-19%)	5 (5=80-100%)	4 (4=60-79%)	5 (5=80-100%)	1 (1=0-19%)	1 (1=0-19%)
C#CCn1c(=O)c(-c2c(F)ccc(Cl)c2OCc2ccccc2)c(OC(=O)C(C)C)c2cccnc21 [Compound 5.001]	2 (2=20-39%)	5 (5=80-100%)	5 (5=80-100%)	5 (5=80-100%)	1 (1=0-19%)	3 (3=40-59%)
CC(C)C(=O)Oc1c(-c2c(Cl)ccc(Cl)c2OCc2ccccc2)c(=O)n(CC(F)F)c2nccnc12 [Compound 3.008]	5 (5=80-100%)	5 (5=80-100%)	5 (5=80-100%)	5 (5=80-100%)	4 (4=60-79%)	5 (5=80-100%)
